According to patent US11679107B2 (Eisai R&D Management Co., Ltd., priority 2018, dated 2023):
Where two headings read alike, the source gives them in different places.

Assays:
[1] = system: Panc 05.04 cells (SF3b K700E mutant); test: Cell proliferation and viability, CellTiter-Glo, 72 hours; format: cell-based; details: for GI50: geometric mean
In short: (§1)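 RPMI-1640/10% FBS (Panc: + insulin, FBS 15%); 11-pt half-log dose, ~10 μM-100 pM, 0.1% DMSO; 37° C, 5% CO2; ATP luminescence read; % inhibition vs T0 and vehicle, −100% cidal to 100% uninhibited growth.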

[2] = system: NCI-H1568 cells (high MCL1); test: as above; format: cell-based; details: for GI50: geometric mean
In short: as §1

SF3b complexes = target: T1, SF3b complexes (Homo sapiens, UniProt O75533+Q7RTV0); test: Scintillation proximity assay (SPA) with [3H]-labelled pladienolide probe; format: binding; details: SF3B1 (WT); geometric mean; read-out: SPA-ATS GMean IC50 (nM) SF3B1 (WT)
T1 construct: endogenous in cells; host or cells: Nuclear extracts; A HeLa S3 extract preparation is described for the in vitro splicing assay
In short: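 SF3b complexes captured from nuclear extracts on anti-SF3B1 antibody SPA beads; test compounds pre-incubated 30 min before 2.5 nM [3H]-pladienolide probe added, then 30 min incubation. Bound probe read by scintillation; values from non-linear regression of concentration–response curves.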

[3] = system: Ad2 variant pre-mRNAs spliced in HeLa S3 nuclear extracts; test: In vitro splicing assay (IVS), RT-qPCR of spliced product; format: biochemical; details: for IC50: geometric mean
In short: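 Read-out is one-step TaqMan RT-qPCR of spliced Ad2 mRNA with Ftz as reference, normalized to DMSO and fit by non-linear regression. Reactions held HeLa S3 nuclear extract, 2 ng Ad2-derived pre-mRNA and test compound, with 15 min preincubation. Splicing was started with ATP-containing activation buffer and run 90 min at 30 °C.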

[4] = PANC0504.1 cells, 72 h, −100% cidal, 0% static, 100% maximal growth
[5] = Panc 05.04, read-out: CTGlo-ATS GMean GI50 (nM) 72 h PANC0504.1, PANC0504.1 cells, 72 h
[6] = NCI-H1568, read-out: CTGlo-ATS GMean GI50 (nM) 72 h NCIH1568.1, NCIH1568.1 cells, 72 h
[7] = NCIH1568.1 cells, 72 h, −100% cidal, 0% static, 100% maximal growth
[8] = Ad2.1 pre-mRNA substrate, read-out: qPCR-IVS-ATS GMean IC50 (nM) Ad2.1
[9] = Ad2.2 pre-mRNA substrate, read-out: qPCR-IVS-ATS GMean IC50 (nM) Ad2.2

Structure (SMILES) | CTGlo-ATS Mean MinResponse % 72 h PANC0504.1 [1, 4] | GI50 [1, 5] | GI50 [2, 6] | CTGlo-ATS Mean MinResponse % 72 h NCIH1568.1 [2, 7] | IC50 (SF3b complexes) | IC50 [3, 8] | IC50 [3, 9] | GI50 ([1]; Panc 05.04, 72 h, read-out: CTGlo-ATS GMean GI50 (nM) 72 h PANC0504.1, PANC0504.1 cells, 72 h) | GI50 ([2]; NCI-H1568, 72 h, read-out: CTGlo-ATS GMean GI50 (nM) 72 h NCIH1568.1, NCIH1568.1 cells, 72 h) | CTGlo-ATS Mean MinResponse % 72 h PANC0504.1 ([1]; 72 h, PANC0504.1, -100% = cidal, 0% = static, 100% = uninhibited growth) | GI50 ([1]; Panc 05.04, read-out: CTGlo-ATS GMean GI50 (nM) 72 h PANC0504.1, 72 h, PANC0504.1) | CTGlo-ATS Mean MinResponse % 72 h NCIH1568.1 ([2]; 72 h, NCIH1568.1, -100% = cidal, 0% = static, 100% = uninhibited growth) | GI50 ([2]; NCI-H1568, read-out: CTGlo-ATS GMean GI50 (nM) 72 h NCIH1568.1, 72 h, NCIH1568.1) | Ratio Ad2.1/2.2 ([3]; ratio of IVS IC50 Ad2.1 to Ad2.2)
C/C(=C\c1cnn(C2CCN(C)CC2)c1)[C@H]1OC(=O)C[C@H](O)CC[C@H](C)[C@@H](OC(=O)N2CCN(C)CC2)/C=C/[C@@H]1C [Compound 106] | 25.144% | 1950 nM | 9020 nM | 49.516% | 146 nM | 21300 nM | 556 nM | – | – | – | – | – | – | –
C/C(=C\c1cc(F)c2nn(C3CCOCC3)nc2c1)[C@H]1OC(=O)C[C@H](O)CC[C@H](C)[C@@H](OC(=O)N2CCN(C)CC2)/C=C/[C@@H]1C [Compound 141] | −94.865% | 72.4 nM | 48.8 nM | −63.745% | 13 nM | > 25000 nM | 61.3 nM | – | – | – | – | – | – | –
CN[C@@H]1CCN(c2cc(F)cc(/C=C(\C)[C@H]3OC(=O)C[C@H](O)CC[C@H](C)[C@@H](OC(=O)N4CCN(C)CC4)/C=C/[C@@H]3C)c2)C1 [Compound 45] | −92.006% | 35.7 nM | 18.9 nM | −98.435% | 15.9 nM | 36.3 nM | 18.3 nM | – | – | – | – | – | – | –
C/C(=C\c1ccc2c(C)nn(C)c2c1)[C@H]1OC(=O)C[C@H](O)CC[C@H](C)[C@@H](OC(=O)N2CCN(C)CC2)/C=C/[C@@H]1C [Compound 50] | −82.642% | 28.3 nM | 43.6 nM | −65.255% | 1.46 nM | 17900 nM | 60.2 nM | – | – | – | – | – | – | –
C/C(=C\c1cc(F)cc(N2CCN(CC(=O)c3cnccn3)CC2)c1)[C@H]1OC(=O)C[C@H](O)CC[C@H](C)[C@@H](OC(=O)N2CCN(C)CC2)/C=C/[C@@H]1C [Compound 85] | −90.914% | – | – | −80.438% | 4.74 nM | 22 nM | 27 nM | 8.42 nM | 14.1 nM | – | – | – | – | –
C/C(=C\c1cc(Cl)cc(N2CCOCC2)c1)[C@H]1OC(=O)C[C@H](O)CC[C@H](C)[C@@H](OC(=O)N2CCN(C)CC2)/C=C/[C@@H]1C [Compound 20] | −78.467% | 14.6 nM | 17.6 nM | −68.668% | 7.76 nM | 61.3 nM | 40.3 nM | – | – | – | – | – | – | –
C/C(=C\c1cccc(S(=O)(=O)N2CC[C@@H](O)C2)c1)[C@H]1OC(=O)C[C@H](O)CC[C@H](C)[C@@H](OC(=O)N2CCN(C)CC2)/C=C/[C@@H]1C [Compound 199, [(2S,3S,4E,6R,7S,10R)-10-hydroxy-2-[(E)-1-[3-[(3R)-3-hydroxypyrrolidin-1-yl]sulfonylphenyl]prop-1-en-2-yl]-3,7-dimethyl-12-oxo-1-oxacyclododec-4-en-6-yl] 4-methylpiperazine-1-carboxylate] | – | – | – | – | 8.99 nM | 1820 nM | 47.2 nM | – | – | −95.445% | 33.8 nM | −52.026% | 22.9 nM | 38.638
C/C(=C\c1cc(F)cc(N2CCN(CC3CC3)C2=O)c1)[C@H]1OC(=O)C[C@H](O)CC[C@H](C)[C@@H](OC(=O)N2CCN(C)CC2)/C=C/[C@@H]1C [Compound 68] | −93.925% | 11.7 nM | 12.4 nM | −67.270% | 3.39 nM | 1870 nM | 35.7 nM | – | – | – | – | – | – | –
